These results are taken from EP0234480A2, “1, 3-diketone derivatives and their use” (NIHON NOHYAKU CO., LTD., priority 1986, dated 1987).

Structures are written as SMILES. Bounds are passed on as bounds.

Data set [1] relates to hepatic disorder caused by carbon tetrachloride. Kind of data set: Effect of suppressing hepatic disorder caused by carbon tetrachloride. In kind it is in vivo, mice. To be noted: mean of 5; for Liver disorder index: mice (dd-strain), 250 mg/kg oral in olive oil, 6 h before carbon tetrachloride 0.05 ml/kg oral, visual observation 24 h after, scale 0 healthy, 2 slightly affected, 4 evident disorder, 6 serious disorder; for p-GPT (K.U.): plasma glutamic pyruvic transaminase activity, Reitman-Frankel, mice, 250 mg/kg oral, 6 h before carbon tetrachloride 0.05 ml/kg, 24 h after, values of 2,100 units or higher counted as 2,100. On the procedure:
Six hours thereafter, carbon tetrachloride was orally administered in a proportion of 0.05 ml/kg. The animals were sacrificed 24 hours after the administration of carbon tetrachloride, and the extent of liver disorder was examined by visual observation. On the other hand, blood was collected from the animal at the time of the sacrifice, and centrifuged to obtain plasma. The plasma glutamic piruvic transaminase (GPT) activity was determined according to the method of Reitman-Frankel. The activity was expressed in terms of Karmen Units (K.U.). The conditions of the liver were expressed in terms of liver disorder index as follows. […] Mice were used in groups of five and the results of test were represented by the mean value. When the GPT activity was 2,100 units or higher, […], and the activity was calculated as 2,100 units for reasons of convenience.

A short description of data set [2]: Acute oral toxicity (LD50). To be noted: in vivo, male rat. On the procedure:
For example, LD50 value (acute oral toxicity to male rat) of the compound No. 8 is more than 1,000 mg/kg.

`CC(=O)C(C(=O)c1ccccc1)=C1SCS1` [Compound No. 1]: in data set [1], the Liver disorder index was 0.7 and the “p-GPT (K.U.)” value stood at 23 K.U.
Regarding `CC(=O)C(C(=O)c1ccc2ccccc2c1)=C1SCS1` [compound 32], in data set [1], the Liver disorder index is reported as 0.8 and the “p-GPT (K.U.)” value came to 18 K.U.
Turning to `CC(=O)C(C(=O)c1cccc(C)c1)=C1SCS1` [Compound No. 2], in data set [1], the Liver disorder index is listed as 0.8 and the “p-GPT (K.U.)” value is 22 K.U.
On the same counts, the results for `CC(=O)C(C(=O)c1ccc(OC(C)C)cc1)=C1SCS1` [compound 29] are 3.4 and 233 K.U.
For `CC(C)C(=O)C(C(=O)c1ccccc1Cl)=C1SCS1` [compound 28], in data set [1], the Liver disorder index came to 1.0 and the “p-GPT (K.U.)” value is reported as 42 K.U.
For `CC(=O)C(C(=O)c1ccc(Cl)cc1Cl)=C1SCS1` [Compound No. 15], in that order: 0.5 and 203 K.U.
Turning to `CC(=O)C(C(=O)c1ccc(OCc2ccc(Cl)cc2)cc1)=C1SCS1` [compound 12], in data set [1], the Liver disorder index is on record as 2.8 and the “p-GPT (K.U.)” value was 1739 K.U.
As to `CC(=O)C(C(=O)c1cccnc1)=C1SCS1` [compound 21], in data set [1], the Liver disorder index is reported as 0.2 and the “p-GPT (K.U.)” value stood at 14 K.U.
With `CC(=O)C(C(=O)c1ccccc1)=C1SC(c2ccccc2)S1` (stereo not shown) [compound 23], in data set [1], the Liver disorder index came to 6.6 and the “p-GPT (K.U.)” value is 1668 K.U.
On to `CC(=O)C(C(=O)c1ccc(Br)cc1)=C1SCS1` [compound 16, 1-(4-bromobenzoyl)-1-(1,3-dithietan-2-ylidene)acetone], for which, in data set [1], the Liver disorder index came to 0 and the “p-GPT (K.U.)” value turned out to be 15.8 K.U.
With `COc1cc(C(=O)C(C(C)=O)=C2SCS2)cc(OC)c1OC` [compound 10], in data set [1], the Liver disorder index came to 1.8 and the “p-GPT (K.U.)” value was found to be 413 K.U.
With `O=C(C(C(=O)c1ccccc1)=C1SCS1)c1ccccc1` [compound 22], in data set [1], the Liver disorder index is recorded as 0.5 and the “p-GPT (K.U.)” value is on record as 71 K.U.
As to `Cc1cccc(C(=O)C(C(=O)c2ccccc2)=C2SCS2)c1` [compound 30], in data set [1], the Liver disorder index was 0.6 and the “p-GPT (K.U.)” value is reported as 19 K.U.
Take `CC(=O)C(C(C)=O)=C1SCS1` [compound 18, 1-acetyl-1-(1,3-dithietan-2-ylidene) acetone]: in data set [1], the Liver disorder index is given as 1.6 and the “p-GPT (K.U.)” value is 1142 K.U.
In general, LD50 refers to the dose at which mortality reaches 50%. The low end stands for greater toxicity, the high end for lower toxicity. Turning to `COc1ccc(C(=O)C(C(C)=O)=C2SCS2)c(OC)c1` [Compound No. 8], in data set [1], the Liver disorder index is 0.6 and the “p-GPT (K.U.)” value is on record as 54 K.U. For the same compound, in data set [2], the LD50 is greater than 1000 mg/kg.
As for `CC(=O)C(C(=O)c1ccc(OCc2ccccc2)cc1)=C1SCS1` [compound 11], in data set [1], the Liver disorder index turned out to be 1.6 and the “p-GPT (K.U.)” value was 884 K.U.
With `COc1cccc(C(=O)C(C(C)=O)=C2SC(c3ccccc3)S2)c1` (stereo not shown) [compound 24], in data set [1], the Liver disorder index was 3.8 and the “p-GPT (K.U.)” value worked out at 1654 K.U.
For the compound `CC(=O)C(C(=O)c1ccc(Cl)cc1)=C1SCS1` [compound 14], in data set [1], the Liver disorder index is 0.2 and the “p-GPT (K.U.)” value amounted to 73 K.U.
Regarding `CC(=O)C(C(=O)c1ccc(C)c(C)c1)=C1SCS1` [compound 4, 1-(3,4-dimethylbenzoyl)-1-(1,3-dithietan-2-ylidene)acetone], in data set [1], the Liver disorder index is listed as 0.6 and the “p-GPT (K.U.)” value was determined as 23 K.U.
Take `COc1cccc(C(=O)C(C(C)=O)=C2SCS2)c1` [compound 6]: in data set [1], the Liver disorder index turned out to be 2.0 and the “p-GPT (K.U.)” value is reported as 16 K.U.
As to `CC(=O)C(C(=O)c1ccc(C)cc1)=C1SCS1` [compound 3], in data set [1], the Liver disorder index came out at 1.4 and the “p-GPT (K.U.)” value is 14 K.U.
Consider `CC(=O)C(C(=O)c1ccco1)=C1SCS1` [compound 20], for which, in data set [1], the Liver disorder index amounted to 0 and the “p-GPT (K.U.)” value is on record as 22 K.U.
Turning to `COc1ccccc1C(=O)C(C(C)=O)=C1SCS1` [Compound No. 5, 1-(1,3-dithietan-2-ylidene)-1-(2-methoxybenzoyl)acetone], in data set [1], the Liver disorder index came to 1.0 and the “p-GPT (K.U.)” value was determined as 12 K.U.
On the same counts, the results for `CC(=O)C(C(=O)c1ccc(F)cc1)=C1SCS1` [compound 17] are 0.4 and 15 K.U.
Take `COc1ccc(C(=O)C(C(C)=O)=C2SCS2)cc1` [compound 7]: in data set [1], the Liver disorder index was 1.2 and the “p-GPT (K.U.)” value is reported as 19 K.U.
On to `CC(=O)C(C(=O)c1ccccc1Cl)=C1SCS1` [compound 13], for which, in data set [1], the Liver disorder index stood at 0.8 and the “p-GPT (K.U.)” value was 13 K.U.
On the same counts, the results for `COc1ccc(C(=O)C(C(C)=O)=C2SCS2)cc1OC` [compound 9] are 0.6 and 11 K.U.
As for `O=C(C(C(=O)c1ccc(F)cc1)=C1SCS1)c1ccccc1` [compound 31, 1-(1,3-dithietan-2-ylidene)-1-(4-fluorobenzoyl)acetophenone], in data set [1], the Liver disorder index was 0.4 and the “p-GPT (K.U.)” value came to 16 K.U.
For `CC(=O)C(C(=O)c1cccs1)=C1SCS1` [compound 19, 1-(1,3-dithietan-2-ylidene)-1-(2-thiophene-carbonyl)acetone], in that order: 0.2 and 16 K.U.
Take `CC(=O)C(C(C)=O)=C1SC(C)S1` (stereo not shown) [compound 25]: in data set [1], the Liver disorder index is listed as 1.2 and the “p-GPT (K.U.)” value is on record as 205 K.U.
